Source: patent US5126347A, “Isomeric dideoxynuclesides” (Hoffmann-La Roche Inc., priority 1989, dated 1992)

Legend:
HIV, HTLV III; RF strain = experiment: HIV antigen capture ELISA, virus growth in CD4+ T-lymphocytes; assay type: cell-based; conditions: C8166 CD4+ T-cell line; for IC50: Human immunodeficiency virus 1, T-lymphocyte, supernatant antigen at 72 hours post-infection
Protocol: The Enzyme Linked Immuno-absorbent Assay (ELISA) was used to test compounds I and II for anti-HIV activity by measuring virus growth in CD4^+ T-lymphocytes by detecting antigen released into the tissue culture supernatant of infected cells.
High titre virus stocks [HIV, HTLV III; RF strain] were grown in H9 cells in RPMI 1640 (Flow Laboratories) supplemented with 10% fetal calf serum, penicillin (100 IU/ml) and streptomycin (100 ug/ml). Cell debris was removed by low speed centrifugation and the supernatant stored at -70° C. until required. The host cell line used in the antiviral assays was the C8166 CD4^+ T-cell line which is particularly susceptible to infection with HIV. Cells were incubated with 10 TCID50, HIV/HTLV III(RF) at 37° C. for 90 minutes and then washed three times with PBSA. Cell aliquots (2×10^5) were resuspended in 1.5 ml growth medium in 6 ml tubes and incubated at 37° C. At 72 hours post-infection, the supernatants from the cell cultures were assayed immediately for HIV antigen.
The antigen capture ELISA used was purchased from Coulter (Luton, UK). The assays were carried out on supernatants taken from infected cell cultures using the steps described by the manufacturers. In each assay the corresponding positive and negative internal controls were included together with a supernatant control taken from uninfected cells. The plates were read using the appropriate spectrophotometric detection system.

HIV (HTLV-III) = experiment: HIV-cytopathic Effect Inhibition Assay; assay type: cell-based; conditions: survival of drug treated target cells with HIV (HTLV-III), seven days; FIGS. 1 to 3
Protocol: Compounds I and II were tested in the HIV-cytopathic Effect Inhibition Assay as described in the publication by Mitsuya, et al. Proc. Nat'l Acad. Sci., USA, 83:1911 (1986), which publication is hereby incorporated by reference.
The cells were exposed to either Compound I, Compound II, or AZT, and the survival of drug treated target cells determined seven days thereafter.
The black bars represent survival of compound treated target cells when HIV (HTLV-III) is added. The light bars represent survival of compound treated target cells in the absence of virus.

| Compound | IC50 (HIV, HTLV III; RF strain) | anti-HIV activity relative to known antiretroviral therapeutics (AZT) (HIV (HTLV-III)) | antiviral activity in this test system, compared to ddA (HIV, HTLV III; RF strain; antigen ELISA) |
| --- | --- | --- | --- |
| Nc1ncnc2c1ncn2[C@H]1CC[C@@H](CO)O1 [ddA, 2',3'-dideoxyadenosine, reference compound] | 1000 to 3000 nM |  |  |
| Nc1ncnc2c1ncn2[C@H]1CO[C@@H](CO)C1 [Compound I, (2R-cis)-4-(6-Amino-9H-purin-9-yl)tetrahydro-2-furanmethanol] | 3000 to 10000 nM | equivalent to that of antiretroviral therapeutics known to have in vivo activity against HIV, most particularly AZT | comparable to that of a known anti-HIV agent ddA |
| Nc1nc2c(ncn2[C@H]2CO[C@@H](CO)C2)c(=O)[nH]1 [Compound II] |  | equivalent to that of antiretroviral therapeutics known to have in vivo activity against HIV, most particularly AZT |  |
